Columns and labels:
Assay type in all cases: physicochemical
[1] = Glass transition temperature by differential scanning calorimetry (DSC); conditions: for glass transition temperature (Tg) compared with glycopyrronium bromide: comparison with glycopyrronium bromide (1)
[2] = TG-FTIR thermal stability (weight loss / degradation)
[3] = Characterisation of moisture sorption (hygroscopicity) of the amorphous form; conditions: sorption of moisture at low relative humidity
Description: Part of the development of glycopyrronium bromide involves milling of the active substance down to a particle size suitable for use in a dry powder inhalation formulation. […] This material becomes sticky upon sorption of moisture at low relative humidity (RH), and then finally crystallises to a non-hygoscopic hard crystalline substance.
The amorphous form of glycopyrronium iodide (2), for example, can be formed by physical techniques such as spray drying or lyophylisation and its sorption behaviour studied by dynamic vapour sorption (DVS) varying RH over time.

| glass transition temperature (Tg) ([1]; amorphous material, determined by DSC) [°C] | hygroscopicity of the amorphous form [3] | Molecule | glass transition temperature (Tg) compared with glycopyrronium bromide [1] | TG-FTIR weight loss / degradation [2] | Tg (glass transition) ([1]; lyophilized material, DSC second scan) [°C] |
| --- | --- | --- | --- | --- | --- |
|  |  | Glycopyrronium Sulphate | lower glass transition temperature (Tg) than glycopyrronium bromide | no significant weight loss below 200° C., degrades above this temperature |  |
|  |  | Glycopyrronium Acetate | lower glass transition temperature (Tg) than glycopyrronium bromide | no significant weight loss below 200° C., degrades above this temperature |  |
|  |  | Glycopyrronium Iodide | lower glass transition temperature (Tg) than glycopyrronium bromide | no significant weight loss below 200° C., degrades above this temperature | 55 |
| 64.9 | highly hygroscopic | C[N+]1(C)CCC(OC(=O)C(O)(c2ccccc2)C2CCCC2)C1 (stereo not drawn) [glycopyrronium bromide, reference compound] |  |  |  |

Reference: US7915303B2, “Glycopyrronium salts and their therapeutic use” (priority 2005, dated 2011)
